According to patent US6395732B1, “Pyrimidin-aminomethyl-pyridine derivatives, their preparation and their use in the control of helicobacter bacteria” (BYK Gulden Lomberg Chemische Fabrik GmbH, priority 1998, dated 2002):

How the values were obtained:
Helicobacter pylori = test: Activity against Helicobacter pylori, agar method of Iwahi et al. (MIC 50); type: cell-based; conditions: Columbia agar (Oxoid), growth period of 4 days, approximate values; for MIC50: Helicobacter pylori, 96 h, read-out: Appr. MIC 50
Text: The compounds of the formula I were investigated with respect to their activity against Helicobacter pylori following the method described by Tomoyuki Iwahi et al. (Antimicrobial Agents and Chemotherapy, 1991, 490-496) using Columbia agar (Oxoid) and a growth period of 4 days.

Row | Structure (SMILES) | melting point | MIC50 (Helicobacter pylori) | Appr. MIC 50 (Helicobacter pylori)
1 | Cc1nc(C)c(Cl)c(NCc2nccc(SCCCSc3ncc(-c4ccccc4)[nH]3)c2C)n1.Cl | 188 to 190 °C | – | –
2 | Cc1nc(C)c(Cl)c(NCc2nccc(N(C)CCN3CCc4ccccc4C3)c2Cl)n1 [Compound 1, (3-Chloro-4-{[2-(3,4-dihydro-1H-isoquinolin-2-yl)ethyl]methylamino}pyridin-2-ylmethyl)-(5-chloro-2,6-dimethylpyrimidin-4-yl)amine] | 81 to 93 °C | – | –
3 | Cc1nc(C)c(Cl)c(NCc2nccc(CNCCO)c2Cl)n1 [Compound 2, 2-({3-Chloro-2-[(5-chloro-2,6-dimethylpyrimidin-4-ylamino)methyl]pyridin-4-yl}methylamino)ethanol] | 162 to 165 °C | – | –
4 | Cc1nc(C)c(Cl)c(NCc2nccc(SCCOCCOCC(F)(F)F)c2C)n1.Cl [Compound 4, (5-Chloro-2,6-dimethylpyrimidin-4-yl)-(3-methyl-4-{2-[2-(2,2,2-trifluoroethoxy)ethoxy]ethylsulfanyl}pyridin-2-ylmethyl)amine hydrochloride] | 235 to 241 °C (dec.) | ≤ 0.1 µg/mL | –
5 | Cc1nc(C)c(Cl)c(NCc2nccc(SCCCSCC3CN(C)C(=O)O3)c2C)n1 (stereo not shown) [Compound 5, 5-(3-{2-[(5-Chloro-2,6-dimethylpyrimidin-4-ylamino)methyl]-3-methylpyridin-4-yl-sulfanyl}propylsulfanylmethyl)-3-methyloxazolidin-2-one] | 121 °C | ≤ 0.1 µg/mL | –
6 | Cc1nc(C)c(Cl)c(NCc2nccc(OCCCCSc3ncccn3)c2C)n1 [Compound 6] | – | – | ≦0.1 μg/ml
7 | Cc1nc(C)c(Cl)c(NCCCSc2ccnc(CNc3nc(C)nc(C)c3Cl)c2C)n1 [Compound 7, {4-[3-(5-Chloro-2,6-dimethylpyrimidin-4-ylamino)propylsulfanyl]-3-methylpyridin-2-yl-methyl}-(5-chloro-2,6-dimethylpyrimidin-4-yl)amine] | – | ≤ 0.1 µg/mL | –
8 | Cc1c(SCCCSCc2ccncc2)ccnc1CNc1ncncc1Cl [Compound 8, (5-Chloropyrimidin-4-yl)-{3-methyl-4-[3-(pyridin-4-ylmethylsulfanyl)propylsulfanyl]-pyridin-2-ylmethyl}amine] | 148 to 149 °C | ≤ 0.1 µg/mL | –
9 | Cc1c(SCCCSCCn2c([N+](=O)[O-])cnc2C)ccnc1CNc1ncncc1Cl [Compound 9, (5-Chloropyrimidin-4-yl)-(3-methyl-4-{3-[2-(2-methyl-5-nitroimidazol-1-yl)ethylsulfanyl]propylsulfanyl}-pyridin-2-ylmethyl)amine] | 119 to 121 °C | ≤ 0.1 µg/mL | –
10 | Cc1nc(C)c(Cl)c(NCc2nccc(SCCCSc3ncccn3)c2C)n1 [Compound 10, (5-Chloro-2,6-dimethylpyrimidin-4-yl)-{3-methyl-4-[3-(pyrimidin-2-ylsulfanyl)propylsulfanyl]-pyridin-2-ylmethyl}amine] | 158 to 159 °C | ≤ 0.1 µg/mL | –
11 | Cc1nc(C)c(Cl)c(NCc2nccc(OCCCCN3CCN(Cc4ccncc4)CC3)c2C)n1 [Compound 11, (5-Chloro-2,6-dimethylpyrimidin-4-yl)-{3-methyl-4-[4-(4-pyridin-4-ylmethylpiperazin-1-yl)butoxy]pyridin-2-ylmethyl}amine] | 157 to 158 °C | – | –
12 | Cc1nc(C)c(Cl)c(NCc2nccc(SCCCCN3CCN(Cc4ccncc4)CC3)c2C)n1 [Compound 12, (5-Chloro-2,6-dimethylpyrimidin-4-yl)-{3-methyl-4-[4-(4-pyridin-4-ylmethylpiparazin-1-yl)butylsulfanyl]pyridin-2-ylmethyl}amine] | – | – | ≦0.1 μg/ml
13 | Cc1nc(C)c(Cl)c(NCc2nccc(OCCCCN3CCNCC3)c2C)n1 [Compound 14, (5-Chloro-2,6-dimethylpyrimidin-4-yl)-[3-methyl-4-(4-piperazin-1-ylbutoxy)pyridin-2-ylmethyl]amine] | 140 to 144 °C | – | –
14 | Cc1nc(C)c(Cl)c(NCc2nccc(OCCCCSCc3ccncc3)c2C)n1 [Compound 15, (5-Chloro-2,6-dimethylpyrimidin-4-yl)-{3-methyl-4-[4-(piridin-4-ylmethylsulfanyl)-butoxy]pyridin-2-ylmethyl}amine] | – | – | ≦0.1 μg/ml
15 | Cc1nc(C)c(Cl)c(NCc2nccc(OCCCCSCCn3c([N+](=O)[O-])cnc3C)c2C)n1 [Compound 16, (5-Chloro-2,6-dimethylpyrimidin-4-yl)-(3-methyl-4-{4-[2-(2-methyl-5-nitroimidazol-1-yl)-ethylsulfanyl]butoxy}pyridin-2-ylmethyl]amine] | 114 to 117 °C | ≤ 0.1 µg/mL | –

Other lines, results leading:

Row | melting point | MIC50 (Helicobacter pylori) | Appr. MIC 50 (Helicobacter pylori) | Structure (SMILES)
16 | 143 to 145 °C | ≤ 0.1 µg/mL | – | Cc1nc(C)c(Cl)c(NCc2nccc(SCCCCN3CCNCC3)c2C)n1 [Compound 17, (5-Chloro-2,6-dimethylpyrimidin-4-yl)-[3-methyl-4-(4-piperazin-1-ylbutylsulfanyl)pyridin-2-ylmethyl]amine]
17 | 123 to 126 °C | ≤ 0.1 µg/mL | – | Cc1nc(C)c(Cl)c(NCc2nccc(N(C)CCCSCCn3c([N+](=O)[O-])cnc3C)c2Cl)n1 [Compound 18, (5-Chloro-2,6-dimethylpyrimidin-4-yl)-[3-chloro-4-(methyl-{3-[2-(2-methyl-5nitroimidazol-1-yl)ethylsulfanyl]propyl}amino)pyridin-2-ylmethyl]amine]
18 | 142 to 144 °C | ≤ 0.1 µg/mL | – | Cc1nc(C)c(Cl)c(NCc2nccc(SCCCCSCCn3c([N+](=O)[O-])cnc3C)c2C)n1 [Compound 19, (5-Chloro-2,6-dimethylpyrimidin-4-yl)-(3-methyl-4-{4-[2-(2-methyl-5-nitroimidazol-1-yl)-ethylsulfanyl]butylsulfanyl}pyridin-2-ylmethyl)amine]
19 | 104 to 106 °C | ≤ 0.1 µg/mL | – | Cc1nc(C)c(Cl)c(NCc2nccc(SCCCCSCc3ccncc3)c2C)n1 [Compound 20, (5-Chloro-2,6-dimethylpyrimidin-4-yl)-{3-methyl-4-[4-(pyridin-4-ylmethylsulfanyl)butylsulfanyl]pyridin-2-ylmethyl}amine]
20 | 92 to 94 °C | ≤ 0.1 µg/mL | – | Cc1nc(C)c(Cl)c(NCc2nccc(SCCCSCC3CCCN(C)C3)c2C)n1 (stereo not shown) [Compound 22, (5-Chloro-2,6-dimethylpyrimidin-4-yl)-{3-methyl-4-[3-(1-methylpiperidin-3-ylmethylsulfanyl)propylsulfanyl]pyridin-2-ylmethyl}amine]
21 | 166 to 168 °C | ≤ 0.1 µg/mL | – | Cc1nc(C)c(Cl)c(NCc2nccc(SCCCN3CCN(Cc4ccncc4)CC3)c2C)n1.Cl [Compound 23, (5-Chloro-2,6-dimethylpyrimidin-4-yl)-{3-methyl-4-[3-(4-pyridin-4-ylmethylpiperazin-1-yl)propylsulfanyl]pyridin-2-ylmethyl}amine hydrochloride]
22 | 124 to 125 °C | ≤ 0.1 µg/mL | – | Cc1nc(C)c(Cl)c(NCc2nccc(SCCCSCc3ccncc3)c2C)n1 [Compound 24, (5-Chloro-2,6-dimethylpyrimidin-4-yl)-{3-methyl-4-[3-(pyridin-4-ylmethylsulfanyl)propylsulfanyl]pyridin-2-ylmethyl}amine]
23 | 145 to 147 °C | ≤ 0.1 µg/mL | – | Cc1nc(C)c(Cl)c(NCc2nccc(SCCCSCCn3c([N+](=O)[O-])cnc3C)c2C)n1 [Compound 27, (5-Chloro-2,6-dimethylpyrimidin-4-yl)-(3-methyl-4-{3-[2-(2-methyl-5-nitroimidazol-1-yl)-ethylsulfanyl]propylsulfanyl}pyridin-2-ylmethyl)amine]
24 | 102 to 105 °C | ≤ 0.1 µg/mL | – | Cc1nc(C)c(Cl)c(NCc2nccc(OCCOCCSCCn3c([N+](=O)[O-])cnc3C)c2C)n1 [Compound 28, (5-Chloro-2,6-dimethyl-pyrimidin-4-yl)-[3-methyl-4-(2-{2-[2-(2-methyl-5nitro-imidazol-1-yl)ethylsulfanyl]-ethoxy}-ethoxy)-pyridin-2-ylmethyl]-amine]
25 | 103 to 105 °C | ≤ 0.1 µg/mL | – | Cc1nc(C)c(Cl)c(NCc2nccc(OCCOCCSCc3ccncc3)c2C)n1 [Compound 29, (5-Chloro-2,6-dimethyl-pyrimidin-4-yl)-(3-methyl-4-{2-[2-(pyridin-4-ylmethylsulfanyl)-ethoxy]-ethoxy}-pyridin-2-ylmethyl)-amine]
26 | 140 to 142 °C | ≤ 0.1 µg/mL | – | Cc1nc(C)c(Cl)c(NCc2nccc(OCCSCc3ccncc3)c2C)n1 [Compound 30, (5-Chloro-2,6-dimethyl-pyrimidin-4-yl)-{3-methyl-4-[2-(pyridin-4-ylmethylsulfanyl)-ethoxy]-pyridin-2-ylmethyl}-amine]
27 | 134 to 137 °C | ≤ 0.1 µg/mL | – | Cc1nc(C)c(Cl)c(NCc2nccc(SCCCSCCO)c2C)n1 [Compound 31, 2-(3-{2-[(5-Chloro-2,6-dimethyl-pyrimidin-4-ylamino)-methyl]-3-methyl-pyridin-4-ylsulfanyl}-propylsulfanyl)-ethanol]
28 | 139 to 144 °C | ≤ 0.1 µg/mL | – | Cc1nc(C)c(Cl)c(NCc2nccc(OCCSCCn3c([N+](=O)[O-])cnc3C)c2C)n1 [Compound 32, (5-Chloro-2,6-dimethyl-pyrimidin-4-yl)-(3-methyl-4-{2-[2-(2-methyl-5-nitro-imidazol-1-yl)-ethylsulfanyl]-ethoxy}-pyridin-2-ylmethyl)-amine]
29 | – | – | ≦0.1 μg/ml | Cc1nc(C)c(Cl)c(NCc2nccc(SCCCSCCO[C@@H]3O[C@H](CO)[C@@H](O)[C@H](O)[C@H]3O)c2C)n1 [Compound 39, 2-(3-{2-[(5-Chloro-2,6-dimethyl-pyrimidin-4-ylamino)-methyl]-3-methyl-pyridin-4-ylsulfanyl}-propylsulfanyl)-β-D-glucopyranoside]
30 | – | – | ≦0.1 μg/ml | Cc1nc(C)c(Cl)c(NCc2nccc(OCCCCSCc3cccnc3)c2C)n1 [Compound 50]
